Like-named read-outs stand apart in the source and are kept apart here.
Legend:
[1] = test system: human breast cancer cell line (MCF-7); experiment: SRB cytotoxicity assay, MCF-7; format: cell-based; settings: Homo sapiens, MCF7; Table 8; breast cancer cell line; read-out: IC50 MCF-7
Protocol: (§1) For in vitro cytotoxicity screening, 1000 to 5000 cells were plated into each well of 96-well plates depending on growth rate, and exposed to different concentrations of a test compound for 96 h in three to five replicates. All the compounds were dissolved in dimethyl sulfoxide at 5 to 20 mM, and diluted to desired concentrations in complete culture medium. Cell numbers at the end of the drug treatment were measured by the SRB assay (Gududuru et al., “Synthesis and Biological Evaluation of Novel Cytotoxic Phospholipids for Prostate Cancer,” Bioorg. Med. Chem. Lett. 14:4919-4923 (2004); Rubinstein et at., “Comparison of in vitro Anticancer-Drug-Screening Data Generated with a Tetrazolium Assay Versus a Protein Assay Against a Diverse Panel of Human Tumor Cell Lines,” J. Naatl, Cancer Inst. 82:1113-1118 (1990), each of which is hereby incorporated by reference in its entirety). Briefly, the cells were fixed with 10% of trichloroacetic acid, stained with 0.4% SRB, and the absorbances at 540 nm was measured using a plate reader (DYNEX Technologies, Chantilly, Va.).
In vitro cytotoxicity assay was performed by the same sulforhodamine B (SRB) assay (described above). The compounds shown in Table 8 below where tested for activity against the breast cancer and ovarian cancer cell lines.
(§2) The chosen cell lines represent different basal levels of active AKT and LPL receptor expression (discussed later). Cells were exposed to a wide range of concentrations (0 to 100 μM) of the indicated compound for 96 h. Cell numbers at the end of treatment were measured using the sulforhodamine B (SRB) assay^5.
(§3) Cells were exposed to a wide range of concentrations (0 to 100 μM) of the particular compound for 96 h in 96 well plates. Cells were fixed with 10% trichloroacetic acid, washed five times with water. The plates were air dried overnight and fixed cells were stained with SRB solution. The cellular protein-bound SRB was measured at 540 nm using a plate reader. Cell numbers at the end of the treatment were measured.

[2] = test system: DU-145 human prostate cancer cells; experiment: SRB cytotoxicity assay, DU-145; format: cell-based; settings: Homo sapiens, DU-145, read-out: IC50 DU-145, 96 h
Protocol: as §1
(§4) The antiproliferative activity of all the synthesized compounds was evaluated against five human prostate cancer cell lines and in RH7777 cells (negative control) using the sulforhodamine B (SRB) assay (see description in Example 5 above).
as §2, §3
(§5) Cells were exposed to a wide range of concentrations (0 to 100 μM) of the particular compound for 96 h in 96-well plates. Cells were fixed with 10% trichloroacetic acid, washed five times with water. The plates were air dried overnight and fixed cells were stained with SRB solution. The cellular protein-bound SRB was measured at 540 nm using a plate reader. Cell numbers at the end of the treatment were calculated as a percentage of untreated control.

[3] = test system: LNCaP human prostate cancer cells; experiment: SRB cytotoxicity assay, LNCaP; format: cell-based; settings: Homo sapiens
Protocol: as §1, §4, §2, §3, §5

[4] = test system: PPC-1 human prostate cancer cells; experiment: SRB cytotoxicity assay, PPC-1; format: cell-based; settings: Homo sapiens, PPC-1, 96 h, read-out: IC50 PPC-1
Protocol: (§6) Dr. Mitchell Steiner at University of Tennessee Health Science Center, kindly provided PPG-1 and TSU-PrI cells.
as §1, §4, §2, §3, §5

[5] = test system: PC-3 human prostate cancer cells; experiment: SRB cytotoxicity assay, PC-3; format: cell-based; settings: Homo sapiens, 96 h, read-out: IC50 PC-3
Protocol: as §1, §4, §2, §3, §5

[6] = test system: TSU-Pr1 human prostate cancer cells; experiment: SRB cytotoxicity assay, TSU-Pr1; format: cell-based; settings: Homo sapiens, TSU-Pr1, 96 h, read-out: IC50 TSU-Pr1
Protocol: as §6, §1, §4, §2, §3, §5

[7] = test system: RH7777 rat hepatoma cells; experiment: SRB cytotoxicity assay, RH7777 control cell line; format: cell-based; settings: Rattus norvegicus, RH7777, control cell line, 96 h, read-out: IC50 RH7777
Protocol: as §1, §4, §2, §3, §5

[8] = test system: AKT phosphorylation (Pi-AKT) in LNCaP cells; experiment: AKT phosphorylation by Western blot in LNCaP cells; format: cell-based, human; settings: 30 μM
Protocol: As another assessment of cytotoxicity, AKT inhibition was measured. […] The immunoblots were visualized by enhanced, chemiluminescence, and changes of relative levels of phospho-AKT compared to total AKT by analog treatment were quantified by densitometric analysis.
Prostate cell line LNCaP cells were treated with 30 μM of the compound of Formula: [drawing 54]
for the indicated period and time. The active form of AKT (Pi-AKT) and the β-Actin were quantified by Western blot analysis. […]
Prostate cell line LNCaP cells were treated with 10 μM of the compound of Formula: [drawing 55]
for the indicated period and time. The active form of AKT (Pi-AKT) and AKT were quantified by Western blot analysis. […]
Prostate cell line LNCaP cells were treated with 10 μM of the compound of Formula [drawing 56]
for the indicated period and time. The active form of AKT (Pi-AKT), AKT and β-Actin were quantified by Western blot analysis. […]

[9] = LNCaP, Table 3, 96 h, read-out: IC50 LNCaP
[10] = LNCaP, Table 4, 96 h, read-out: IC50 LNCaP

| SMILES | IC50 [1] [µM] | melting point [°C] | IC50 ([2]; Table 3) [µM] | IC50 [3, 9] [µM] | IC50 ([4]; Table 3) [µM] | IC50 ([5]; Table 3) [µM] | IC50 ([6]; Table 3) [µM] | IC50 ([7]; Table 3) [µM] | IC50 ([2]; Table 4) [µM] | IC50 [3, 10] [µM] | IC50 ([4]; Table 4) [µM] | IC50 ([5]; Table 4) [µM] | IC50 ([6]; Table 4) [µM] | IC50 ([7]; Table 4) [µM] | further results |
| --- | --- | --- | --- | --- | --- | --- | --- | --- | --- | --- | --- | --- | --- | --- | --- |
| CCCCCCCCCCCCCCCCCCNC(=O)[C@@H]1CSC(Cc2ccccc2)N1 (mixture of isomers) [Compound 9, (2RS, 4R)-2-Benzylthiazolidine-4-carboxylic acid octadecylamide] | 18.7 | 80 | 15.3 | 4.4 | 4 | 16.4 | 11.2 | > 20 |  |  |  |  |  |  |  |
| CCCCCCCCCCCCCCCCCCNC(=O)[C@@H]1CSC(c2c[nH]c3ccccc23)N1 (mixture of isomers) [Compound 10, (2RS, 4R)-2-(1H-Indol-3yl)-thiazolidine-4-carboxylic acid octadecylamide] |  | 125 | 8.9 | 2.1 | 1.3 | 11.5 | 4.4 | > 20 |  |  |  |  |  |  |  |
| CCCCCCCCCCCCCCCCCCNC(=O)[C@@H]1CSC(c2ccc(C)cc2)N1 (mixture of isomers) [Compound 26, (2RS, 4R)-2 p-Tolyl-thiazolidine-4-carboxylic acid octadecylamide] | 10.3 | 120 |  |  |  |  |  |  | 10.5 | 1.9 | 1.9 | 12.8 | 8 | > 20 |  |
| CCCCCCCCCCCCCCCCCCNC(=O)[C@@H]1CSC(C2CCCCC2)N1 (mixture of isomers) [Compound 8, (2RS, 4R)-2-Cyclohexylthiazolidine-4-carboxylic acid octadecylamide] | ~20 | 60 | > 20 | 12.8 | 9.3 | > 20 | > 20 | > 20 |  |  |  |  |  |  |  |
| CCCCCCCCCCCCCCCCCCNC(=O)[C@@H]1CSC(c2cccnc2)N1 (mixture of isomers) [Compound 11, (2RS, 4R)-2-Pyridin-3-yl-thiazolidine-4-carboxylic acid octadecylamide] | 9.3 | 94 | 7.5 | 3.6 | 2.9 | 9.2 | 7.8 | 10.5 |  |  |  |  |  |  |  |
| CCCCCCCCCCCCCCCCCCNC(=O)[C@@H]1CSC(c2ccccc2)N1S(C)(=O)=O (mixture of isomers) [Compound 29, (2RS,4R)-3-Methanesulfonyl-2-phenylthiazolidine-4-carboxylic acid octadecylamide] | > 20 | 55 |  |  |  |  |  |  | > 20 | > 20 | > 20 | > 20 | > 20 | > 20 |  |
| CCCCCCCCCCCCCCCCCCNC(=O)[C@@H]1CSC(c2cc(F)cc(F)c2)N1 (mixture of isomers) [Compound 23, (2RS, 4R)-2-(3,5-Difluoro-phenyl)-thiazolidine-4-carboxylic acid octadecylamide] |  | 113 |  |  |  |  |  |  | > 20 | 11.2 | 10.6 | > 20 | > 20 | > 20 |  |
| CCCCCCCCCCCCCCCCCCNC(=O)[C@@H]1CSC(c2ccc(Br)cc2)N1 (mixture of isomers) [Compound 20, (2RS, 4R)-2-(4-Bromo-phenyl)-thiazolidine-4-carboxylic acid octadecylamide] | 16.6 | 81 |  |  |  |  |  |  | 13.8 | 5.1 | 3.7 | 17.3 | 18.3 | > 20 |  |
| CCCCCCCCCCCCCCCCCCNC(=O)[C@H](CO)NC(=O)OC(C)(C)C |  |  |  |  |  |  |  |  |  |  |  |  |  |  | IC50 ([3]; stated in the text of the LNCaP AKT experiments (Examples 12-14), test of the IC50 not named, read-out: IC50): 10.3 µM; Relative abundance (Pi-AKT/β-Actin) ([8]; 1 h, (−) control 1.00): 1.29; Relative abundance (Pi-AKT/β-Actin) ([8]; 2 h): 1.01; Relative abundance (Pi-AKT/β-Actin) ([8]; 6 h): 0.71; Relative abundance (Pi-AKT/β-Actin) ([8]; 12 h): 0.50; Relative abundance (Pi-AKT/β-Actin) ([8]; 24 h): 0.32; Relative abundance (Pi-AKT/β-Actin) ([8]; 48 h): <0.10; Relative abundance (Pi-AKT/β-Actin) ([8]; 72 h): <0.10; AKT phosphorylation inhibited to ([8]; by 12 hours of treatment): 50% |
| CCCCCCCCCCCCCCCCCCNC(=O)[C@@H]1CSC(c2ccc([N+](=O)[O-])cc2)N1 (mixture of isomers) [Compound 21, (2RS, 4R)-2-(4-Nitro-phenyl)-thiazolidine-4-carboxylic acid octadecylamide] | 16.3 | 115 |  |  |  |  |  |  | 15.3 | 8.4 | 15.3 | ~20 | 15.9 | ~20 |  |
| CCCCCCCCCCCCCCCCCCNC(=O)[C@@H]1CSC(c2ccccc2)N1C(C)=O (mixture of isomers) [Compound 28, (2RS, 4R)-3-Acetyl-2-phenylthiazolidine-4-carboxylic acid octadecylamide] | 16.3 | 90 |  |  |  |  |  |  | ~20 | 16.1 | 12.6 | ~20 | > 20 | > 20 |  |

Reference: US20060014740A1 (priority 2003, published 2006)
